pIC50: −log10 of the molar value. Read-outs that look alike come from different tables or passages of the source.

9 molecules from patent publication US5264429A, “2-spirocyclopropyl cephalosporin sulfone derivatives” (SynPhar Laboratories, Inc., priority 1991, dated 1993) can be followed below.

One test has as its target T1, plasmin (Homo sapiens, UniProt P00747).
T1 construct: from tissue; host or cells: human plasma
Briefly: Inhibition of plasmin (PTH). It is filed as biochemical. The conditions noted are these: pH 8.9, 10 minute preincubation, 22° C. Here is the method:
(§1) HLE, CTG, PPE and CTD were tested at 30° C. and the others were
(§2) TRY, trypsin; THR, thrombin; PTH, plasmin; CTC, cathepsin C; ATM,
Enzyme: Purified plasmin from human plasma Substrate: Tosyl-glyclyl-L-prolyl-L-lysine-pNA acetate
Reaction mixture: 50 mM Tris-HCl buffer (pH 8.9), 500 mM NaCl, 5% DMSO, 0.5 mM Substrate.
(§3) Except for Cathepsin D, the enzyme activities were determined by monitoring the increase in absorbance at 410 nm caused by the hydrolysis of chromogenic substrates. The activity of Cathepsin D was determined by monitoring the absorbance of 5% trichloroacetic acid-soluble material at 280 nm.
(§4) Inhibition of enzymes by the compounds described were determined after a 10 minute preincubation with enzymes in reaction mixtures minus substrate. Reactions were initiated by the addition of substrates. The concentration used for assays were porcine pancreatic elastase at 240 nM and human Cathepsin G at 50 nM. Cathepsin D was used at the concentration that produced approximately 0.15 O.D. increase per 20 min at 280 nm under the standard conditions. All other proteases were assayed at the concentrations that produced approximately 0.1 O.D. change per minute at 410 nm under the standard conditions.

Test [1] deals with T2, porcine pancreatic elastase (Sus scrofa, UniProt P00772).
T2 construct: from tissue; host or cells: porcine pancreas
Briefly: Inhibition of porcine pancreatic elastase (PPE). It is filed as biochemical. As to conditions: porcine pancreatic elastase 240 nM, pH 8.9, 10 minute preincubation, 30° C. On the procedure:
as §1
(§5) aminopeptidase M; CTG, cathespin G; CTD, cathespin D; PPE, porcine
Porcine pancreatic Elastase (PPE)
Enzyme: Purified elastase from porcine pancreas
Substrate: MeO-succinyl-L-alanyl-L-alanyl-L-prolyl-L-valine-pNA
Reaction mixture: 50 mM Tris[Tris(hydroxymethyl) aminomethane]. HCl buffer (pH 8.9), 500 mM NaCl, 10% DMSO, 1.4 mM Substrate.
as §3, §4

The target in the next test is T3, thrombin (Homo sapiens, UniProt P00734).
T3 construct: from tissue; host or cells: human plasma
As to the kind of experiment: Inhibition of thrombin (THR). In kind it is biochemical. As to conditions: pH 8.6, 10 minute preincubation, 22° C. On the procedure:
as §1, §2
Enzyme: Purified thrombin from human plasma
Substrate: Tosyl-glycyl-L-prolyl-L-arginine-p-NA acetate
Reaction mixture: 50 mM Tricine-NaOH buffer (pH 8.6), 500 mM NaCl, 0.1% Polyethyleneglycol 8000, 10% DMSO, 0.5 mM Substrate.
as §3, §4

In a further test the target is T4, cathepsin D (Bos taurus, UniProt P80209).
T4 construct: from tissue; host or cells: bovine spleen
Briefly: Inhibition of cathepsin D (CTD). As to conditions: cathepsin D, pH 3.2, 10 minute preincubation, 30° C.; read-out: IC50 CTD. In kind it is biochemical, bovine. On the procedure:
as §4, with “Except for Cathepsin D, the enzyme activities were determined by monitoring the increase in absorbance at 410 nm caused by the hydrolysis of chromogenic substrates. The activity of Cathepsin D was determined by monitoring the absorbance of 5% trichloroacetic acid-soluble material at 280 nm. Inhibition” for “Inhibition”, “The concentration used for assays were porcine pancreatic elastase at 240 nM and human Cathepsin G at 50 nM.” left out

Another test deals with T5, aminopeptidase M (Sus scrofa, UniProt P15145).
T5 construct: from tissue; host or cells: porcine kidney
T5 sequence (P15145 1-963): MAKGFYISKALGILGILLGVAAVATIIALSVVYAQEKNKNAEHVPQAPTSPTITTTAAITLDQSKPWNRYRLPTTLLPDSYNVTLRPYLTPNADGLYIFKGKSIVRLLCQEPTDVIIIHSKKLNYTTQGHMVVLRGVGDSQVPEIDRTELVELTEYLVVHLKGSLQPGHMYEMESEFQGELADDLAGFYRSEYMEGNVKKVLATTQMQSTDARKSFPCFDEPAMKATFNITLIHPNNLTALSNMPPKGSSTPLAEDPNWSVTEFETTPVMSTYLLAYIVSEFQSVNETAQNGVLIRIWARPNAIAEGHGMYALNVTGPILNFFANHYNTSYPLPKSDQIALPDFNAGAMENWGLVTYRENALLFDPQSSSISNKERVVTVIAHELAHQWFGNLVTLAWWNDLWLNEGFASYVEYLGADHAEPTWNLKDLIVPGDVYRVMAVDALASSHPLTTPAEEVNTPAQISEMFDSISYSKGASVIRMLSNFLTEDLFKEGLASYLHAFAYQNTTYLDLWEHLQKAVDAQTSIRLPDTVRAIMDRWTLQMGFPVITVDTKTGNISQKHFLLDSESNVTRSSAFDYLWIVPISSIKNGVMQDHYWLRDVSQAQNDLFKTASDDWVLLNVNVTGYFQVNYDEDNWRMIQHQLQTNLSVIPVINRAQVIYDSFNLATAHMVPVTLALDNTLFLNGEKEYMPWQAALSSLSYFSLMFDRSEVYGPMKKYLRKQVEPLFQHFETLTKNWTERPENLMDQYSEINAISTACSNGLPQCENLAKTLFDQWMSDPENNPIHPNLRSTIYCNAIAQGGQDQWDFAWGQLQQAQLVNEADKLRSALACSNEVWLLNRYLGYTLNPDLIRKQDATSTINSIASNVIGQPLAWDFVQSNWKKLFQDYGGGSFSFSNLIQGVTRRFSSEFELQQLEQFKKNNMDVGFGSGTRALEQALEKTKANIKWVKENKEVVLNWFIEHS
As to the kind of experiment: Inhibition of aminopeptidase M (ATM). In kind it is biochemical, porcine. Here is the method: as §1, §2, §5
Enzyme: Purified aminopeptidase M from porcine kidney
Reaction Mixture: 50 mM Tricine buffer (pH 7.5), 500 mM NaCl, 10% DMSO, 2.0 mM Substrate.
as §3, §4

A further test addresses T6, trypsin (Bos taurus, UniProt P00760).
T6 construct: from tissue; host or cells: bovine pancreas
T6 sequence (P00760 24-246): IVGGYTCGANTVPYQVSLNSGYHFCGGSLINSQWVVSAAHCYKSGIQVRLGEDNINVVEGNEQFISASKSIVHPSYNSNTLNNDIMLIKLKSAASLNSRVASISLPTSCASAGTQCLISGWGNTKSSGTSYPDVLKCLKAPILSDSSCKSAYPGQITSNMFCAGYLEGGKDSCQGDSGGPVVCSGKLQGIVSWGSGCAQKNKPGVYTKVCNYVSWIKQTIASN
Briefly: Inhibition of trypsin (TRY). As to conditions: for IC50: trypsin, pH 8.8, 10 minute preincubation, 22° C., read-out: IC50 TRY (converted). It is filed as biochemical, bovine.

The next test addresses T7, cathepsin C (Bos taurus, UniProt Q3ZCJ8).
T7 construct: from tissue; host or cells: bovine spleen
Briefly: Inhibition of cathepsin C (CTC). In kind it is biochemical, bovine. Here is the method: as §1, §2
Enzyme: Purified cathepsin C from bovine spleen
Substrate: Glycyl-L-phenylalanine-pNA
Reaction mixture: 50 mM Citrate buffer (pH 5.4), 5 mM B-Mercaptoethanol, 150 mM NaCl, 10% DMSO, 20 mM Substrate.
as §3, §4

Where [2] appears, read: aminopeptidase M, pH 7.5, 10 minute preincubation, 22° C., read-out: IC50 ATM.
Setting [3] is: cathepsin C, pH 5.4, 10 minute preincubation, 22° C., read-out: IC50 CTC.

T2 sequence (P00772 27-266): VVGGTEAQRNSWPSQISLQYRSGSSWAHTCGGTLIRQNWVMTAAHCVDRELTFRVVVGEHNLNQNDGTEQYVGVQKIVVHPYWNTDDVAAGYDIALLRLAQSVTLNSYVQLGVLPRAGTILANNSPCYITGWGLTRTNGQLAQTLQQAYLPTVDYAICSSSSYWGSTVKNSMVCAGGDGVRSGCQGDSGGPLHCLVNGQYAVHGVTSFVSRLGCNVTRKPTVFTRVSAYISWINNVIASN
T4 sequence (P80209 45-390): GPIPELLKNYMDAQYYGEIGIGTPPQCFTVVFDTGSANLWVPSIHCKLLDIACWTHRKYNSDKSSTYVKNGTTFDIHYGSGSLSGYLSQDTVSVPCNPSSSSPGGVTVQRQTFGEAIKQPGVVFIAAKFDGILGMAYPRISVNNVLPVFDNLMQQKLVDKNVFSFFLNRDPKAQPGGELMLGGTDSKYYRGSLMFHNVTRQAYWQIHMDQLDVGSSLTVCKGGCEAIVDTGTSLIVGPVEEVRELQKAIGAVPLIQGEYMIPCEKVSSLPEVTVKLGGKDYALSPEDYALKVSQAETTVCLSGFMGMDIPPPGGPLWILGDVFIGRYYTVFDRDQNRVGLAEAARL
T1 sequence (P00747 581-810 limits assumed): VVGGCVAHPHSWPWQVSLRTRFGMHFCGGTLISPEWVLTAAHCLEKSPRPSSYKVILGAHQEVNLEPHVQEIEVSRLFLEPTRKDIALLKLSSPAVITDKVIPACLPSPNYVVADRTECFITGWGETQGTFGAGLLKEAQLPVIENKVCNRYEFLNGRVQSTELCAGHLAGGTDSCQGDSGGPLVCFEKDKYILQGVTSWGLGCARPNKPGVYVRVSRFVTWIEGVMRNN
T1 sequence (P00747 97-580 partner limits assumed): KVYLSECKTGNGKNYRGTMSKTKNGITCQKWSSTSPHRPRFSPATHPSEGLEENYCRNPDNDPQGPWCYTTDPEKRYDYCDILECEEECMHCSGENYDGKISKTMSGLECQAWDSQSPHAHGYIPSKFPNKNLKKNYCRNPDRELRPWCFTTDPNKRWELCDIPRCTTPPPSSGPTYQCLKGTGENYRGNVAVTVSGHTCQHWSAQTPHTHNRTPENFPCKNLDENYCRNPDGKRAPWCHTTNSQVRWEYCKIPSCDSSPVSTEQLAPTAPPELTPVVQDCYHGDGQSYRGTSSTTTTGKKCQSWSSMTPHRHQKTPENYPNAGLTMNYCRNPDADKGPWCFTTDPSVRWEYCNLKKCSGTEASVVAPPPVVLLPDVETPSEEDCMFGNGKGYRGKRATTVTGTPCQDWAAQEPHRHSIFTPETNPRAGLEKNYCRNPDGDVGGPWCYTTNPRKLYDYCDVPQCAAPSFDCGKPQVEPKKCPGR
T7 sequence (Q3ZCJ8 231-394 limits assumed): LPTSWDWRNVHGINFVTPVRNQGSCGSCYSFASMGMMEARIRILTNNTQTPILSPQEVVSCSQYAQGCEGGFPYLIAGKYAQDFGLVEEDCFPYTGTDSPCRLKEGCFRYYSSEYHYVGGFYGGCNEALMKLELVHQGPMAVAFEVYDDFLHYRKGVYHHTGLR
T7 sequence (Q3ZCJ8 395-463 limits assumed): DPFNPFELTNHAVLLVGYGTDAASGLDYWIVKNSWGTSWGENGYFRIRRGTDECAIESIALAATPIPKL
T7 sequence (Q3ZCJ8 25-134 limits assumed): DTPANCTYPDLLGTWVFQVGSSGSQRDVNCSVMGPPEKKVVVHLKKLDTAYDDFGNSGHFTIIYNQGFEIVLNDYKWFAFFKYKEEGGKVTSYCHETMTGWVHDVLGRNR
Description for trypsin: Enzyme: Purified trypsin from bovine pancreas
Substrate: Bz-L-arginine-p-NA
Reaction mixture: 50 mM Tricine[N-Tris(hydroxymethyl)methylglycine]-NaOH buffer (pH 8.8) 150 mM NaCl, 10% DMSO 1.0 mM Substrate.
Inhibition of enzymes by the compounds described were determined after a 10 minute preincubation with enzymes in reaction mixtures minus substrate. Reactions were initiated by the addition of substrates. […] All other proteases were assayed at the concentrations that produced approximately 0.1 O.D. change per minute at 410 nm under the standard conditions.

Turning to `CC1=C(C(=O)OC(c2ccccc2)c2ccccc2)N2C(=O)[C@H](Cl)[C@H]2S(=O)(=O)C12CC2(c1ccccc1)c1ccccc1` (single isomer, unassigned) [Example 1, Benzhydryl 7α-chloro-2-spiro(2',2'-diphenyl) cyclopropyl-3-methyl-3-cephem-4-carboxylate-1,1-dioxide], the pIC50 was 5.44 against plasmin; 7.48 in test [1]; less than 4.40 on thrombin; less than 4.30 on cathepsin D; less than 4.22 on aminopeptidase M (setting [2]); less than 4.22 on cathepsin C (setting [3]). Besides, the IC50 on trypsin was greater than 60 µM.
In the case of `CC1=C(C(=O)OC(c2ccccc2)c2ccccc2)N2C(=O)[C@H](Br)[C@H]2S(=O)(=O)C12CC2(c1ccccc1)c1ccccc1` (single isomer, unassigned) [Example 2, benzhydryl 7α-bromo-2-spiro(2', 2'-diphenyl) cyclopropyl-3-methyl-3-cephem-4-carboxylate-1,1-dioxide], the negative logarithm of the IC50 (pIC50) was 5.49 against plasmin; 7.74 in test [1]; less than 4.40 at thrombin; less than 4.30 at cathepsin D; less than 4.40 at aminopeptidase M (setting [2]); less than 4.41 on cathepsin C (setting [3]). The IC50 on trypsin is greater than 37 µM.
Take `CC1=C(C(=O)OC(c2ccccc2)c2ccccc2)N2C(=O)[C@H](Br)[C@H]2S(=O)(=O)C12CC2(c1ccc(Cl)cc1)c1ccc(Cl)cc1` (single isomer, unassigned) [Example 12, Benzhydryl 7α-bromo-2-spiro [2',2'-(4',4'-dichloro)diphenyl]cyclopropyl-3-methyl-3-cephem-4-carboxylate-1,1-dioxide]: the pIC50 against plasmin was 5.66; in test [1], 6.63; against thrombin, less than 4.26; on cathepsin D, less than 4.34; against aminopeptidase M, less than 4.26; at trypsin, 4.26. The molecule further had a pIC50 at cathepsin C of less than 4.26.
As to `CC1=C(C(=O)OC(c2ccccc2)c2ccccc2)N2C(=O)[C@H](Br)[C@H]2S(=O)(=O)C12CC2(c1ccc(F)cc1)c1ccc(F)cc1` (single isomer, unassigned) [Example 13, Benzhydryl 7α-bromo-2-spiro[2',2'-(4',4'-difluoro)diphenyl] cyclopropyl-3-methyl-3-cephem-4-carboxylate-1,1-dioxide], the negative logarithm of the IC50 (pIC50) against plasmin was 5.50; in test [1] it was 7.20; against thrombin, less than 4.40; on cathepsin D, less than 4.30; against aminopeptidase M it was less than 4.40; at trypsin, less than 4.40. In addition, on cathepsin C, the pIC50 was less than 4.40.
In the case of `CC1=C(C(=O)OC(C)(C)C)N2C(=O)[C@H](Br)[C@H]2S(=O)(=O)C12CC2(c1ccccc1)c1ccccc1` (stereo partly drawn) [Example 3, t-Butyl 7α-bromo-2-spiro(2',2'-diphenyl) cyclopropyl-3-methyl-3-cephem 4-carboxylate-1,1-dioxide], the negative logarithm of the IC50 (pIC50) on plasmin was 5.26; in test [1], 7.03; against thrombin, less than 4.38; on cathepsin D, less than 4.30; on aminopeptidase M (setting [2]), less than 4.40; at cathepsin C (setting [3]) it was less than 4.40. At trypsin, the IC50 was greater than 40 µM.
`CC1=C(C(=O)N2CCCC2)N2C(=O)[C@H](Br)[C@H]2S(=O)(=O)C12CC2(c1ccccc1)c1ccccc1` (stereo partly drawn) [Example 6, 7α Bromo-2-spiro(2',2'-diphenyl)cyclopropyl-3-methyl-3-cephem-4-pyrrolidine carboxamide-1,1-dioxide]: the pIC50 at plasmin is less than 4.41; in test [1], 6.69; at thrombin, less than 4.41; at cathepsin D, less than 5.01; at aminopeptidase M (setting [2]), less than 5.01; on cathepsin C (setting [3]), less than 5.01. For the same molecule, on trypsin, the IC50 is greater than 39 µM.
For the molecule `CCO[C@H]1C(=O)N2C(C(=O)OCC(Cl)(Cl)Cl)=C(C)C3(CC3(c3ccccc3)c3ccccc3)S(=O)(=O)[C@H]12` (stereo partly drawn) [Example 7, 2,2,2-Trichloroethyl-7α-ethoxy-2-spiro(2',2'-diphenyl)cyclo-propyl-3-methyl-3-cephem-4-carboxylate-1,1-dioxide], the pIC50 on plasmin is less than 5.00; in test [1], 7.79; against thrombin, less than 5.00; at cathepsin D, less than 5.00; at aminopeptidase M (setting [2]) it was less than 5.00; on cathepsin C (setting [3]) it was less than 5.00. At trypsin, the half-inhibitory concentration (IC50) is greater than 10 µM.
With `CO[C@H]1C(=O)N2C(C(=O)OCC(Cl)(Cl)Cl)=C(C)C3(CC3(c3ccccc3)c3ccccc3)S(=O)(=O)[C@H]12` (stereo partly drawn) [Example 8, 2,2,2-Trichloroethyl-7α-methoxy-2-spiro(2',2'-diphenyl) cyclopropyl-3-methyl-3-cephem-4-carboxylate-1,1-dioxide], the pIC50 against plasmin was 5.89; in test [1] it was 7.64; on thrombin, less than 5.00; at cathepsin D it was less than 5.00; against aminopeptidase M, less than 5.00; at cathepsin C, less than 5.00. At trypsin, the IC50 was 0.648 µM.
Regarding `CO[C@H]1C(=O)N2C(C(=O)OC(c3ccccc3)c3ccccc3)=C(C)C3(CC3(c3ccccc3)c3ccccc3)S(=O)(=O)[C@H]12` (stereo partly drawn) [Example 9, Benzhydryl 7α-methoxy-2-spiro (2',2'-diphenyl) cyclopropyl-3-methyl-3-cephem-4-carboxylate-1,1-dioxide], the pIC50 on plasmin was 5.06; in test [1], 7.26; against thrombin, less than 5.00; at cathepsin D it was less than 5.08; at aminopeptidase M, less than 5.00; at trypsin, less than 5.00. The pIC50 against cathepsin C is less than 5.00.

As a reminder, the pIC50 is −log10 of the IC50, conventionally taken in molar units. As usually defined, the IC50 is the concentration needed to halve the response being measured.
